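48-hour exposure; five concentrations; linearly interpolated endpoints. Here, GI50 denotes the concentration required for 50% inhibition of growth.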 Calls of active or inactive are those of the source. No stated cut-off is given here; in the data, active = GI50 up to about 1.1 µM and inactive = higher.
Legend:
Assay in all cases: inhibition of tumour cell growth, NCI panel, 48 h
MOLT-4 = system: MOLT-4
IGROV-1 = system: IGROV-1
HOP-62 = system: HOP-62
NCI-H226 = system: NCI-H226
SN12C = system: SN12C
TK-10 = system: TK-10
UO-31 = system: UO-31
SF-295 = system: SF-295
UACC-62 = system: UACC-62
SF-268 = system: SF-268
RXF 393 = system: RXF 393
NCI-H23 = system: NCI-H23
CAKI-1 = system: CAKI-1
786-0 = system: 786-0
MCF7 = system: MCF7
HCT-116 = system: HCT-116
NCI-H460 = system: NCI-H460
A498 = system: A498
SK-MEL-2 = system: SK-MEL-2
HOP-92 = system: HOP-92

| SMILES | GI50 (MOLT-4) | GI50 (IGROV-1) | GI50 (HOP-62) | GI50 (NCI-H226) | GI50 (SN12C) | GI50 (TK-10) | GI50 (UO-31) | GI50 (SF-295) | GI50 (UACC-62) | GI50 (SF-268) | GI50 (RXF 393) | GI50 (NCI-H23) | GI50 (CAKI-1) | GI50 (786-0) | GI50 (MCF7) | GI50 (HCT-116) | GI50 (NCI-H460) | GI50 (A498) | GI50 (SK-MEL-2) | GI50 (HOP-92) |
| --- | --- | --- | --- | --- | --- | --- | --- | --- | --- | --- | --- | --- | --- | --- | --- | --- | --- | --- | --- | --- |
| CN1CN(c2ccccc2)C2(CCN(CCCCCCF)CC2)C1=O | 48.9 µM (inactive) | 40.3 µM (inactive) | 31.1 µM (inactive) | > 100 µM (inactive) | 68.9 µM (inactive) | 65.8 µM (inactive) | 26.7 µM (inactive) | 82 µM (inactive) | 90.2 µM (inactive) | 94.8 µM (inactive) | > 100 µM (inactive) | 94 µM (inactive) | 41.9 µM (inactive) | > 100 µM (inactive) | 23.8 µM (inactive) | 28.8 µM (inactive) | – | – | – | – |
| O=C(Nc1ccccc1)C(=O)C(C(=O)c1ccccc1F)C1OC(=O)c2ccccc21 (stereo not drawn) | 28.4 µM (inactive) | 71.4 µM (inactive) | 42.8 µM (inactive) | 25.1 µM (inactive) | 37.1 µM (inactive) | 69.2 µM (inactive) | 47.3 µM (inactive) | 47.1 µM (inactive) | 23.5 µM (inactive) | 21.1 µM (inactive) | 35.8 µM (inactive) | 47.3 µM (inactive) | 55.6 µM (inactive) | – | – | 18.9 µM (inactive) | 37.7 µM (inactive) | 89.3 µM (inactive) | 23.9 µM (inactive) | > 100 µM (inactive) |
| CCOC(=O)NNC(=O)NCCCCNC(=O)NNC(=O)OCC | > 100 µM (inactive) | > 100 µM (inactive) | > 100 µM (inactive) | > 100 µM (inactive) | > 100 µM (inactive) | > 100 µM (inactive) | > 100 µM (inactive) | > 100 µM (inactive) | > 100 µM (inactive) | – | > 100 µM (inactive) | > 100 µM (inactive) | > 100 µM (inactive) | > 100 µM (inactive) | – | > 100 µM (inactive) | > 100 µM (inactive) | > 100 µM (inactive) | > 100 µM (inactive) | > 100 µM (inactive) |
| CS/C(=N\c1ccccc1)N(c1ccccc1)c1nc(=[N+](C)C)ss1.[O-][Cl+3]([O-])([O-])[O-] | 1.5 µM (inactive) | 1.22 µM (inactive) | 13.9 µM (inactive) | 10 µM (inactive) | 3.2 µM (inactive) | 14.5 µM (inactive) | 15.1 µM (inactive) | 12.5 µM (inactive) | 0.0441 µM (active) | 5.13 µM (inactive) | 4.13 µM (inactive) | 4.48 µM (inactive) | 3.48 µM (inactive) | 5.66 µM (inactive) | – | 2.56 µM (inactive) | 0.0338 µM (active) | 12.4 µM (inactive) | 2.01 µM (inactive) | 2.79 µM (inactive) |
| CN(C)CCN1C(=O)c2ccccc2C1(O)c1ccc(Cl)cc1 (stereo not drawn) | 39.3 µM (inactive) | 39.3 µM (inactive) | > 100 µM (inactive) | 66.7 µM (inactive) | > 100 µM (inactive) | > 100 µM (inactive) | 24.3 µM (inactive) | > 100 µM (inactive) | 32.7 µM (inactive) | > 100 µM (inactive) | 15.7 µM (inactive) | > 100 µM (inactive) | 40.8 µM (inactive) | > 100 µM (inactive) | > 100 µM (inactive) | 63.5 µM (inactive) | 93.1 µM (inactive) | – | – | – |
| O=c1n(-c2ccccc2)c(=O)n2n1C1C=CC2CCCCCC1 | > 100 µM (inactive) | > 100 µM (inactive) | > 100 µM (inactive) | > 100 µM (inactive) | > 100 µM (inactive) | > 100 µM (inactive) | > 100 µM (inactive) | > 100 µM (inactive) | > 100 µM (inactive) | > 100 µM (inactive) | – | > 100 µM (inactive) | > 100 µM (inactive) | > 100 µM (inactive) | > 100 µM (inactive) | > 100 µM (inactive) | > 100 µM (inactive) | – | > 100 µM (inactive) | > 100 µM (inactive) |
| COc1ccc(C2Oc3cc(OC)c(O)cc3[C@@H]2C)cc1 (stereo partly drawn) | 14.9 µM (inactive) | > 10 µM (inactive) | > 100 µM (inactive) | 17.2 µM (inactive) | – | 45.8 µM (inactive) | 13.8 µM (inactive) | > 100 µM (inactive) | > 10 µM (inactive) | 48.8 µM (inactive) | 28.2 µM (inactive) | 23.6 µM (inactive) | 29.3 µM (inactive) | 17.1 µM (inactive) | – | 12.8 µM (inactive) | 57.9 µM (inactive) | > 100 µM (inactive) | 43 µM (inactive) | 15.3 µM (inactive) |
| Nc1c(C(=O)c2ccccc2)nnc2ccccc12 | 36.1 µM (inactive) | 26.6 µM (inactive) | 24.5 µM (inactive) | 30.4 µM (inactive) | – | 24.3 µM (inactive) | 24.7 µM (inactive) | – | 17.5 µM (inactive) | 35.6 µM (inactive) | – | 24.8 µM (inactive) | 29.5 µM (inactive) | 30.5 µM (inactive) | 20.4 µM (inactive) | 24.6 µM (inactive) | 24 µM (inactive) | – | 17.4 µM (inactive) | 18.8 µM (inactive) |
| Cc1ccc2c(c1CCCC(C)(C)O)C(=O)C(O)=C(C(C)C)C2=O | 60.1 µM (inactive) | 90.4 µM (inactive) | – | > 100 µM (inactive) | 78.3 µM (inactive) | > 100 µM (inactive) | 76 µM (inactive) | 81.7 µM (inactive) | – | 59.4 µM (inactive) | 53.5 µM (inactive) | 59.3 µM (inactive) | > 100 µM (inactive) | > 100 µM (inactive) | – | 60.5 µM (inactive) | 47.2 µM (inactive) | > 100 µM (inactive) | 36.7 µM (inactive) | > 100 µM (inactive) |
| CCC1(O)CC(CCN(Cc2ccccc2)C(=O)OCc2ccccc2)C(OCc2ccccc2)C1O (stereo not drawn) | 1.93 µM (inactive) | 20.4 µM (inactive) | 14.5 µM (inactive) | 10.7 µM (inactive) | 24.4 µM (inactive) | 16.5 µM (inactive) | 16.2 µM (inactive) | 11.1 µM (inactive) | 12.9 µM (inactive) | – | 16.3 µM (inactive) | 14 µM (inactive) | 25.3 µM (inactive) | 17.2 µM (inactive) | 6.38 µM (inactive) | 17.5 µM (inactive) | 13.4 µM (inactive) | – | 14.4 µM (inactive) | – |
| ClC1=NN=C(c2c[nH]c3ccccc23)CC1NCc1ccccc1 (stereo not drawn) | > 100 µM (inactive) | 97.7 µM (inactive) | > 100 µM (inactive) | > 100 µM (inactive) | > 100 µM (inactive) | > 100 µM (inactive) | > 100 µM (inactive) | > 100 µM (inactive) | > 100 µM (inactive) | > 100 µM (inactive) | > 100 µM (inactive) | > 100 µM (inactive) | > 100 µM (inactive) | > 100 µM (inactive) | – | > 100 µM (inactive) | > 100 µM (inactive) | > 100 µM (inactive) | > 100 µM (inactive) | > 100 µM (inactive) |
| CC1(n2nc(-c3ccccc3)n(-c3ccccc3)c2=O)CSC1 | > 100 µM (inactive) | > 100 µM (inactive) | > 100 µM (inactive) | > 100 µM (inactive) | > 100 µM (inactive) | > 100 µM (inactive) | > 100 µM (inactive) | > 100 µM (inactive) | > 100 µM (inactive) | > 100 µM (inactive) | > 100 µM (inactive) | > 100 µM (inactive) | > 100 µM (inactive) | > 100 µM (inactive) | – | > 100 µM (inactive) | > 100 µM (inactive) | 38.2 µM (inactive) | > 100 µM (inactive) | > 100 µM (inactive) |
| CCOC(=O)NC(C(F)(F)F)(C(F)(F)F)P(=O)(OC(C)C)OC(C)C | > 100 µM (inactive) | > 100 µM (inactive) | > 100 µM (inactive) | 58.7 µM (inactive) | > 100 µM (inactive) | > 100 µM (inactive) | > 100 µM (inactive) | > 100 µM (inactive) | > 100 µM (inactive) | > 100 µM (inactive) | > 100 µM (inactive) | > 100 µM (inactive) | – | > 100 µM (inactive) | > 100 µM (inactive) | > 100 µM (inactive) | > 100 µM (inactive) | – | > 100 µM (inactive) | – |
| COc1cc(OC)c(C#N)c(OC)c1C | > 100 µM (inactive) | – | > 100 µM (inactive) | > 100 µM (inactive) | > 100 µM (inactive) | > 100 µM (inactive) | > 100 µM (inactive) | > 100 µM (inactive) | > 100 µM (inactive) | > 100 µM (inactive) | > 100 µM (inactive) | > 100 µM (inactive) | > 100 µM (inactive) | > 100 µM (inactive) | – | – | > 100 µM (inactive) | > 100 µM (inactive) | > 100 µM (inactive) | > 100 µM (inactive) |
| CCOC(OC1=C(C#N)CCCC1)C(CC)[Se]c1ccccc1[N+](=O)[O-] (stereo not drawn) | 25.6 µM (inactive) | 23.9 µM (inactive) | 32.1 µM (inactive) | 17.7 µM (inactive) | 19.6 µM (inactive) | 76.2 µM (inactive) | 26.8 µM (inactive) | 22.2 µM (inactive) | 22 µM (inactive) | 23 µM (inactive) | 28.8 µM (inactive) | 16.7 µM (inactive) | > 100 µM (inactive) | 17.8 µM (inactive) | – | 19.4 µM (inactive) | 34.2 µM (inactive) | > 100 µM (inactive) | 21 µM (inactive) | 18.4 µM (inactive) |
| COc1ccc(/C(Cl)=C(\CN(C)C)c2ccc(OC)c(OC)c2)cc1OC.[B] | > 100 µM (inactive) | > 100 µM (inactive) | 24.3 µM (inactive) | > 100 µM (inactive) | > 100 µM (inactive) | 13.7 µM (inactive) | > 100 µM (inactive) | 12.7 µM (inactive) | 3.94 µM (inactive) | > 100 µM (inactive) | 15.7 µM (inactive) | 95.1 µM (inactive) | > 100 µM (inactive) | 15.9 µM (inactive) | – | 38.8 µM (inactive) | > 100 µM (inactive) | 33.9 µM (inactive) | – | 2.22 µM (inactive) |

— ChEMBL document CHEMBL1201862, “PubChem BioAssay data set” (2004)
